Test results: US20240208992A1, “MACROCYCLES AS CFTR MODULATORS” (Idorsia Pharmaceuticals Ltd, priority 2021, published 2024)
pEC50: −log10 of the molar value.

Molecular target: human F508del-CFTR (Homo sapiens, UniProt P13569, DEL508-508)
Assay: F508del-CFTR cell surface expression (corrector activity), DiscoveRx ß-galactosidase complementation chemiluminescence assay in recombinant U2OS cell line;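 further: U2OS cells co-expressing ProLink-tagged F508del-CFTR and a membrane-anchored enzyme acceptor, where more surface CFTR restores β-galactosidase activity measured by chemiluminescence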
Settings: for pEC50: EC50, F508del-CFTR cell surface expression, U2OS cells, 16h compound incubation, geomean values; for Emax: U2OS, in relation to Emax of corrector lumacaftor (=100%), arithmetic mean values

Chain of human F508del-CFTR (P13569 with tags, fused parts or gaps DEL508-508): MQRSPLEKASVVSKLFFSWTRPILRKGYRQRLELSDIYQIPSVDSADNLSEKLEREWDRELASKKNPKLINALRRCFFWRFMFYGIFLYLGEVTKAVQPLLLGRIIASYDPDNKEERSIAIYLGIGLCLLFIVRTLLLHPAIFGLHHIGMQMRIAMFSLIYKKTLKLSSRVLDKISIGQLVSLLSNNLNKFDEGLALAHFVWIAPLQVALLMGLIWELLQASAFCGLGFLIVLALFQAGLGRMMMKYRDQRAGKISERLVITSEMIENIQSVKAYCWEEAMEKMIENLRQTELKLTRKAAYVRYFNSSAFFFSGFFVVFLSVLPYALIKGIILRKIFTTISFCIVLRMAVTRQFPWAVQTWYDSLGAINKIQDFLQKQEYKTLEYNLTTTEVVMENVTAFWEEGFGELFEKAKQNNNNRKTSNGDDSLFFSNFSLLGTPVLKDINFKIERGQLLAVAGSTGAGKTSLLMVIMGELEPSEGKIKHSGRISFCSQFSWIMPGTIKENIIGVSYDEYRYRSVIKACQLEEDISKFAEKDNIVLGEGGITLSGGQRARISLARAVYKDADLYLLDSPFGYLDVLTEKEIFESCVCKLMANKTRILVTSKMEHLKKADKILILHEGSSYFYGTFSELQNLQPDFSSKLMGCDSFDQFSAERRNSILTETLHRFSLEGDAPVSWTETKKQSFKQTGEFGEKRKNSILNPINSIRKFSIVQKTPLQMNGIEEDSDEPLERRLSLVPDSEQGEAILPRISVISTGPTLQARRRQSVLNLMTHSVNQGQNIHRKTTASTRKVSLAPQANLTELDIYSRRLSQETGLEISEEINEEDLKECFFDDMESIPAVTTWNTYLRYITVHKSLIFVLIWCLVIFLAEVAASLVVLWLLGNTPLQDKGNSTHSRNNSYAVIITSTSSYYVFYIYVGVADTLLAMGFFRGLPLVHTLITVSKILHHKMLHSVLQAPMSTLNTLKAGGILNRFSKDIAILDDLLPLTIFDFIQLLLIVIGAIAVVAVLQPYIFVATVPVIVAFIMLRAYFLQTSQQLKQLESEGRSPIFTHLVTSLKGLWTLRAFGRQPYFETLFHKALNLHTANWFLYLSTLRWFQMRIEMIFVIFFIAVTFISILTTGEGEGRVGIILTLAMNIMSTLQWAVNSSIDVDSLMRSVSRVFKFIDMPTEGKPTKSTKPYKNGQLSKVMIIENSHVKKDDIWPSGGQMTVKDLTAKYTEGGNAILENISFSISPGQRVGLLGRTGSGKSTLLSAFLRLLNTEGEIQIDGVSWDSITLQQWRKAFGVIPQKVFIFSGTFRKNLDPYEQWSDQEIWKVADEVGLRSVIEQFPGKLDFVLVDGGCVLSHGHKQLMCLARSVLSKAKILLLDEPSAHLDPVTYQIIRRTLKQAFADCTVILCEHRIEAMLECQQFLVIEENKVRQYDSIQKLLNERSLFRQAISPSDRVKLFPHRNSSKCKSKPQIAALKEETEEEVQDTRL

SMILES | pEC50 | Emax [%]
Cc1cc(CCNC(=O)[C@@H]2CC(=O)N(C)[C@@H](CC(C)C)C(=O)N3CCCC[C@@H]3C(=O)N[C@H](Cc3ccccc3)COc3cnc4c(F)cccc4c3C(=O)N2)on1 [Example 443, (9S,13S,19aR,22R)-22-benzyl-3-fluoro-13-isobutyl-12-methyl-N-(2-(3-methylisoxazol-5-yl)ethyl)-7,11,14,20-tetraoxo-7,8,9,10,11,12,13,14,17,18,19,19a,20,21,22,23-hexadecahydro-16H-pyrido[2′,1′:6,7][1]oxa[4,7,10,14]tetraazacycloheptadecino[17,16-c]quinoline-9-carboxamide] | 6.50 | 275
Cc1cc(CCNC(=O)[C@@H]2CC(=O)N(C)[C@@H](CC(C)C)C(=O)N3CCCC[C@@H]3C(=O)N[C@H](Cc3ccccc3)COc3ccnc(C)c3C(=O)N2)on1 [Example 444, (7S,11S,17aR,20R)-20-benzyl-11-isobutyl-4,10-dimethyl-N-(2-(3-methylisoxazol-5-yl)ethyl)-5,9,12,18-tetraoxo-5,6,7,8,9,10,11,12,15,16,17,17a,18,19,20,21-hexadecahydro-14H-dipyrido[2,1-f:3′,4′-p][1]oxa[4,7,10,14]tetraazacycloheptadecine-7-carboxamide] | 5.98 | 199
Cc1cc(CCNC(=O)[C@@H]2CC(=O)N(C)[C@@H](CC(C)C)C(=O)N(C[C@H]3CCCCO3)CC(=O)N[C@H](Cc3ccccc3)COc3cnc4ccccc4c3C(=O)N2)on1 [Example 445, (3S,7S,13R)-13-benzyl-7-isobutyl-6-methyl-N-(2-(3-methylisoxazol-5-yl)ethyl)-1,5,8,11-tetraoxo-9-(((R)-tetrahydro-2H-pyran-2-yl)methyl)-1,2,3,4,5,6,7,8,9,10,11,12,13,14-tetradecahydro-[1]oxa[4,7,10,14]tetraazacycloheptadecino[17,16-c]quinoline-3-carboxamide] | 6.02 | 194
COc1cccc(CCNC(=O)[C@@H]2CC(=O)N(C)[C@@H](CC(C)C)C(=O)N(C)C3(CC3)C(=O)N[C@H](Cc3ccccc3)COc3ccc4c(c3C(=O)N2)OCC4)c1 [Example 447, (8R,14S,18S)-8-benzyl-14-isobutyl-N-(3-methoxyphenethyl)-12,15-dimethyl-10,13,16,20-tetraoxo-2,3,7,8,9,10,13,14,15,16,17,18,19,20-tetradecahydro-12H-spiro[benzofuro[7,6-p][1]oxa[4,7,10,14]tetraazacycloheptadecine-11,1′-cyclopropane]-18-carboxamide] | 6.35 | 220
COc1cccc(CCNC(=O)[C@@H]2CC(=O)N(C)[C@@H](CC(C)C)C(=O)N(C)CC(=O)N[C@H](Cc3ccccc3)COc3nc4ccccn4c3C(=O)N2)c1 [Example 449, (3R,9S,13S)-3-benzyl-9-isobutyl-N-(3-methoxyphenethyl)-7,10-dimethyl-5,8,11,15-tetraoxo-2,3,4,5,6,7,8,9,10,11,12,13,14,15-tetradecahydropyrido[2′,1′:2,3]imidazo[4,5-p][1]oxa[4,7,10,14]tetraazacycloheptadecine-13-carboxamide] | 6.27 | 165
COc1cccc(CCNC(=O)[C@@H]2CC(=O)N(C)[C@@H](CC(C)C)C(=O)N(C)CC(=O)N[C@H](Cc3ccccc3)COc3ccc4c(c3C(=O)N2)CCO4)c1 [Example 450, (3S,7S,13R)-13-benzyl-7-isobutyl-N-(3-methoxyphenethyl)-6,9-dimethyl-1,5,8,11-tetraoxo-1,2,3,4,5,6,7,8,9,10,11,12,13,14,19,20-hexadecahydrobenzofuro[4,5-p][1]oxa[4,7,10,14]tetraazacycloheptadecine-3-carboxamide] | 6.42 | 107
COc1cccc(CCNC(=O)[C@@H]2CC(=O)N(C)[C@@H](CC(C)C)C(=O)N3CCN(CCCO)C[C@@H]3C(=O)N[C@H](Cc3ccccc3)COc3ccc4ccccc4c3C(=O)N2)c1 [Example 451, (4aR,7R,18S,22S)-7-benzyl-3-(3-hydroxypropyl)-22-isobutyl-N-(3-methoxyphenethyl)-21-methyl-5,16,20,23-tetraoxo-2,3,4,4a,5,6,7,8,16,17,18,19,20,21,22,23-hexadecahydro-1H-naphtho[1,2-p]pyrazino[2,1-f][1]oxa[4,7,10,14]tetraazacycloheptadecine-18-carboxamide] | 6.59 | 307

Other lines, results leading:

pEC50 | Emax [%] | SMILES
6.05 | 248 | Cc1cc(CCNC(=O)[C@@H]2CC(=O)N(C)[C@@H](CC(C)C)C(=O)N(CC[C@@H]3CCCCO3)CC(=O)N[C@H](Cc3ccccc3)COc3cnc4ccccc4c3C(=O)N2)on1 [Example 446, (3S,7S,13R)-13-benzyl-7-isobutyl-6-methyl-N-(2-(3-methylisoxazol-5-yl)ethyl)-1,5,8,11-tetraoxo-9-(2-((S)-tetrahydro-2H-pyran-2-yl)ethyl)-1,2,3,4,5,6,7,8,9,10,11,12,13,14-tetradecahydro-[1]oxa[4,7,10,14]tetraazacycloheptadecino[17,16-c]quinoline-3-carboxamide]
6.02 | 109 | Cc1cc(CCNC(=O)[C@@H]2CC(=O)N(C)[C@@H](CC(C)C)C(=O)N(C)C3(CC3)C(=O)N[C@H](Cc3ccccc3)COc3nc4ccccn4c3C(=O)N2)on1 [Example 448, (3′R,9′S,13′S)-3′-benzyl-9′-isobutyl-7′,10′-dimethyl-N-(2-(3-methylisoxazol-5-yl)ethyl)-5′,8′,11′,15′-tetraoxo-2′,3′,4′,5′,8′,9′,10′,11′,12′,13′,14′,15′-dodecahydro-7′H-spiro[cyclopropane-1,6′-pyrido[2′,11:2,3]imidazo[4,5-p][1]oxa[4,7,10,14]tetraazacycloheptadecine]-13′-carboxamide]
6.05 | 292 | Cc1cc(CCNC(=O)[C@@H]2CC(=O)N(C)[C@@H](CC(C)C)C(=O)N3CCN(CCCO)C[C@@H]3C(=O)N[C@H](Cc3ccccc3)COc3ccc4ccccc4c3C(=O)N2)on1 [Example 452, (4aR,7R,18S,22S)-7-benzyl-3-(3-hydroxypropyl)-22-isobutyl-21-methyl-N-(2-(3-methylisoxazol-5-yl)ethyl)-5,16,20,23-tetraoxo-2,3,4,4a,5,6,7,8,16,17,18,19,20,21,22,23-hexadecahydro-1H-naphtho[1,2-p]pyrazino[2,1-f][1]oxa[4,7,10,14]tetraazacycloheptadecine-18-carboxamide]
6.38 | 251 | CC(C)C[C@H]1C(=O)N(C)C2(CC2)C(=O)N[C@H](Cc2ccccc2)COc2cnc3ccccc3c2C(=O)N[C@H](C(=O)NCCc2cccc(-n3nccn3)c2)CC(=O)N1C [Example 453, (3′S,7′S,13′R)-N-(3-(2H-1,2,3-triazol-2-yl)phenethyl)-13′-benzyl-7′-isobutyl-6′,9′-dimethyl-1′,5′,8′,11′-tetraoxo-2′,3′,4′,5′,6′,7′,8′,9′,11′,12′,13′,14′-dodecahydro-1′H-spiro[cyclopropane-1,10′-[1]oxa[4,7,10,14]tetraazacycloheptadecino[17,16-c]quinoline]-3′-carboxamide]
